Experimental data taken from PubChem BioAssay (NCI).
“And” between values parts separate entries of the source, which are not always exact repeats. Equal entries are not always repeated.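 Grown in 96-well plates, cells were treated for 48 hours with each compound at five concentrations. Insufficient inhibition: endpoint recorded as highest concentration tested. GI50: concentration for 50% inhibition of growth. TGI is the concentration that stops growth completely.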

Legend:
Assay in all cases: DTP human tumour cell line panel, 48 h
UO-31 renal = system: UO-31 renal
NCI-H226 lung = system: NCI-H226 lung
T-47D breast = system: T-47D breast
A549 NSCLC = system: A549 NSCLC
LOX IMVI melanoma = system: LOX IMVI melanoma
MDA-MB-435 = system: MDA-MB-435
MDA-MB-231 breast = system: MDA-MB-231 breast
IGROV1 ovarian = system: IGROV1 ovarian
TK-10 renal = system: TK-10 renal
UACC-257 melanoma = system: UACC-257 melanoma

SMILES	TGI (UO-31 renal)	TGI (NCI-H226 lung)	TGI (T-47D breast)	TGI (A549 NSCLC)	TGI (LOX IMVI melanoma)	TGI (MDA-MB-435)	TGI (MDA-MB-231 breast)	TGI (IGROV1 ovarian)	TGI (TK-10 renal)	TGI (UACC-257 melanoma)	GI50 (UO-31 renal)	GI50 (NCI-H226 lung)	GI50 (T-47D breast)	GI50 (A549 NSCLC)	GI50 (LOX IMVI melanoma)	GI50 (MDA-MB-435)	GI50 (MDA-MB-231 breast)	GI50 (IGROV1 ovarian)	GI50 (TK-10 renal)	GI50 (UACC-257 melanoma)
CC(=O)OC1C(O)C(C)OC(OC2C(OC(=O)C3CCC4C(C3)OC3(CC(OC(=O)/C=C/c5ccccc5)C(C)CO3)C43CO3)OC(C)C(O)C2OC(C)=O)C1O (centres undefined)	1.6 µM	0.0522 µM	0.0441 µM	0.333 µM	0.0213 µM	0.00649 µM	0.101 µM	0.0922 µM	0.225 µM	0.0811 µM	–	–	–	–	–	–	–	–	–	–
c1cc[n+](Cc2c3ccccc3cc3c2ccc2ccccc23)cc1	> 100 µM	24.8 µM	7.92 µM	27.7 µM	15.8 µM	12.2 µM	20 µM	5.93 µM	28.2 µM	5.48 µM	27.5 µM	2.92 µM	2.34 µM	7.31 µM	3.72 µM	3.29 µM	6.08 µM	1.67 µM	8.2 µM	2.34 µM
CCOC(=O)c1c(-c2ccccc2)n2c(=O)cc(C)c3c(O)c(O)cc1c32	38.7 µM	42.1 µM	> 100 µM	24.6 µM	22.8 µM	> 100 µM	27.7 µM	19.2 µM	> 100 µM	28.7 µM	8.39 µM	11.4 µM	5.43 µM	5.46 µM	4.96 µM	15.7 µM	6.64 µM	4.99 µM	22.7 µM	6.38 µM
Cn1cc(-c2csc(-c3ccccc3)n2)c2cccnc21	28.3 µM	42.4 µM	28.5 µM	38 µM	25.4 µM	26.5 µM	30.8 µM	37.4 µM	39.1 µM	44.4 µM	11 µM	16.6 µM	6.04 µM	16.9 µM	12.8 µM	11.2 µM	13.5 µM	16.5 µM	17.9 µM	21.1 µM
Cc1c(O)cccc1C(=O)N[C@@H](CSc1ccccc1)[C@H](O)CN1C[C@H]2CCCC[C@H]2C[C@H]1C(=O)NC(C)(C)C	16.4 µM and 19.5 µM	14 µM and 16.5 µM	19.4 µM and > 55.6 µM	10.8 µM and 22.8 µM	18.8 µM and 15.8 µM	12.8 µM and 38.4 µM	11.5 µM and 13.7 µM	32 µM and 7.74 µM	23.6 µM and 24.5 µM	13.8 µM and 24.7 µM	3.45 µM and 3.81 µM	4.84 µM and 5.57 µM	3.79 µM and 6.02 µM	3.01 µM and 4.94 µM	5.27 µM and 5.39 µM	3.46 µM and 4.9 µM	3.24 µM and 5.92 µM	3.45 µM and 2.62 µM	4.26 µM and 5.89 µM	3.66 µM and 6.84 µM
COc1ccccc1CNCCCN1C(=O)c2ccc3c4c(ccc(c24)C1=O)C(=O)N(CCCNCCCCNCCCN)C3=O	16.2 µM	2.71 µM	0.49 µM	2.72 µM	1.57 µM	0.494 µM	10.5 µM	11.1 µM	6.28 µM	0.33 µM	2.66 µM	0.911 µM	0.214 µM	0.581 µM	0.3 µM	0.213 µM	0.431 µM	0.359 µM	0.959 µM	0.176 µM
CS(=O)(=O)N1CCC(Nc2ncc(C(=O)c3c(F)cccc3F)c(N)n2)CC1	> 25 µM	> 25 µM	> 25 µM	> 25 µM	> 25 µM	> 25 µM	> 25 µM	> 25 µM	> 25 µM	> 25 µM	12 µM	7.27 µM	12 µM	6.14 µM	9.9 µM	11.1 µM	11.9 µM	11.4 µM	7.98 µM	13.2 µM
Cc1ccc(C2=NN(c3ccc(S(=O)(=O)NC(=O)NCc4ccccc4)cc3)C(c3ccc(N(C)C)cc3)C2)c(C)c1 (centres undefined)	15.7 µM	15.9 µM	> 100 µM	16.4 µM	14.1 µM	7.08 µM	22.4 µM	13.6 µM	35.9 µM	> 100 µM	4.27 µM	3.91 µM	6.74 µM	3.46 µM	4.08 µM	2.51 µM	4.16 µM	4.31 µM	6.46 µM	4.64 µM
CSC1=CC(=O)c2ccccc2C1=O	2.84 µM	3.82 µM	2.1 µM	64.8 µM	3.92 µM	9.73 µM	3.02 µM	13.2 µM	5.5 µM	4.36 µM	1.4 µM	1.68 µM	0.41 µM	24.2 µM	1.75 µM	3.02 µM	1.29 µM	3.7 µM	2.66 µM	2.04 µM
CC(C)c1cnc(-c2cc(Cl)ccc2F)cc1Nc1ccncc1C(=O)NC(CO)CO	21.9 µM	34.8 µM	34.8 µM	62.3 µM	27.9 µM	30.4 µM	44.3 µM	35.4 µM	56 µM	33.7 µM	2.87 µM	13.6 µM	4.5 µM	11.1 µM	13.7 µM	16.1 µM	15.3 µM	10.3 µM	10.8 µM	16.3 µM
CCOC(=O)C#Cc1cccc(C#CC(=O)OCC)c1	10.1 µM	22.1 µM	98.4 µM	16.6 µM	5.83 µM	9.52 µM	11.2 µM	32.5 µM	10.6 µM	24.2 µM	–	–	–	–	–	–	–	–	–	–
Nc1nc2ccc(CNc3ccc(C(=O)NC(CC(=O)O)C(=O)O)cc3)cc2c(=O)[nH]1 (centres undefined)	> 100 µM	> 100 µM	> 100 µM	–	> 100 µM	> 100 µM	> 100 µM	> 100 µM	> 100 µM	> 100 µM	9.74 µM	> 65.3 µM	> 100 µM	0.549 µM	0.472 µM	0.514 µM	> 100 µM	3.32 µM	> 100 µM	> 100 µM
C=C(C(=O)c1ccccc1)C(NC(C)(C)C)c1ccccc1 (centres undefined)	2.85 µM	4.56 µM	6.78 µM	7.79 µM	2.97 µM	11 µM	4.84 µM	6.9 µM	2.25 µM	4.81 µM	1.38 µM	1.63 µM	2.44 µM	2.74 µM	1.46 µM	2.11 µM	2.06 µM	2.3 µM	1.02 µM	1.69 µM
CCc1ccc(Oc2c(-c3ccc(OCCc4cccc(C(F)(F)F)c4)cc3O)n[nH]c2C(F)(F)F)cc1	8.08 µM	14.3 µM	4.95 µM	11.1 µM	6.89 µM	10.3 µM	11.1 µM	8.72 µM	11.5 µM	10.6 µM	2.07 µM	6.9 µM	1.43 µM	4.89 µM	1.94 µM	3.71 µM	4.94 µM	2.51 µM	5.52 µM	4.58 µM
CC(C)(C)N1CC1CNC(=O)C(=O)NCC1CN1C(C)(C)C (centres undefined)	> 21.3 µM	18.7 µM	98.1 µM	21.1 µM	> 54.1 µM	> 100 µM	> 100 µM	19.7 µM	> 100 µM	11.1 µM	–	–	–	–	–	–	–	–	–	–
Clc1nc(Cl)c2ncn(-c3ccccc3)c2n1	3.13 µM	28.5 µM	8.63 µM	29.8 µM	3.28 µM	13.2 µM	24.5 µM	3.38 µM	20.9 µM	20.2 µM	1.63 µM	12.1 µM	2.95 µM	12.9 µM	1.67 µM	3.32 µM	10.7 µM	1.66 µM	7.46 µM	6.86 µM
O=S(=O)(NCCNc1nccc(-c2c(-c3ccc(F)cc3)nc3sccn23)n1)c1ccc(O)cc1	16.7 µM	21.9 µM	19.2 µM	43.1 µM	49.6 µM	14.8 µM	70.1 µM	13.7 µM	26.3 µM	34.7 µM	2.39 µM	6.91 µM	2.36 µM	3.28 µM	1.88 µM	1.07 µM	7.77 µM	1.7 µM	4.81 µM	5.84 µM
Cc1ccc(NC(=S)NNC(=S)Nc2ccc(C)cc2)cc1	> 100 µM	> 100 µM	> 100 µM	> 100 µM	> 100 µM	> 100 µM	> 100 µM	> 100 µM	> 100 µM	> 100 µM	11.6 µM	> 100 µM	14.4 µM	6.03 µM	6.13 µM	2.5 µM	65.4 µM	6.24 µM	18.2 µM	7.13 µM
COc1cc(/C=C2\CCC/C(=C\c3cc(CN4CCCC4)c(O)c(OC)c3)C2=O)cc(CN2CCCC2)c1O	21.7 µM	6.84 µM	22.3 µM	12.8 µM	3.36 µM	7.46 µM	12.8 µM	13.3 µM	15.5 µM	19.6 µM	10.1 µM	2.57 µM	7.97 µM	3.5 µM	1.74 µM	2.75 µM	3.81 µM	3.24 µM	4.36 µM	5.29 µM
C=C(C)COc1ccc2c(c1)CCC1C2CCC2(C)C(=O)/C(=N/O)CC12 (centres undefined)	15.3 µM	26.6 µM	8.61 µM	26.4 µM	13.9 µM	7.61 µM	4.93 µM	4.6 µM	5.58 µM	23.5 µM	–	–	–	–	–	–	–	–	–	–
NC(=O)c1c[nH]c2ncnc(N)c12	80.9 µM	> 100 µM	> 100 µM	> 100 µM	> 100 µM	> 100 µM	> 100 µM	> 100 µM	> 100 µM	> 100 µM	22.4 µM	67.3 µM	35.3 µM	> 100 µM	48.6 µM	26.6 µM	91.5 µM	36.6 µM	19.6 µM	> 100 µM
